Series [1] concerns HT-29. As to the kind of experiment: Cytotoxicity against human HT-29 cells assessed as cell survival after 24 hrs by SRB assay. The class given is functional, cell-based. Particulars: HT-29, 24 h.
For series [2], the target named is T1, Nuclear factor erythroid 2-related factor 2 (Mus musculus) (UniProt Q60795).
T1 sequence (whole entry): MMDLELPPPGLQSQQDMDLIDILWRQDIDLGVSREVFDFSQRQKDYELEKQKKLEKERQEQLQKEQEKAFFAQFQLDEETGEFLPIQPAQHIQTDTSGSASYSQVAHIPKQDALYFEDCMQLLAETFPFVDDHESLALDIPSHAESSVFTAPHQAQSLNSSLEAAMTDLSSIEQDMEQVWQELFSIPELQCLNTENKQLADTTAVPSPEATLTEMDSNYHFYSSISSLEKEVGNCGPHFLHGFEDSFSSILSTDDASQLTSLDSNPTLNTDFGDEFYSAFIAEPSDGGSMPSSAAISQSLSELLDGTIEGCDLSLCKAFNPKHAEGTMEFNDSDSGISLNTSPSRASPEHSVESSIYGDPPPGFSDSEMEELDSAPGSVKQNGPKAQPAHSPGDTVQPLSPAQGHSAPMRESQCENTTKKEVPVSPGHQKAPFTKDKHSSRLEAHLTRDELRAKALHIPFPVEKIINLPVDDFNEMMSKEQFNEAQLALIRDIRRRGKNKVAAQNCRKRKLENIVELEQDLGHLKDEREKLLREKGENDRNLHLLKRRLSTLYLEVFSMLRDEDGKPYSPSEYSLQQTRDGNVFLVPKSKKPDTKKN
Put plainly: Ratio of activation of wild type Nrf2 in mouse Hepa1c1c7 cells cytosolic fraction to activation of Nrf2 in mutant mouse BpRc1 cells cytosolic fraction. The class given is cell-based.

For series [3], the system named is HT-29. Put plainly: Cytotoxicity against human HT-29 cells assessed as cell survival at 100 uM after 24 hrs by SRB assay relative to control. The class given is functional. Conditions: HT-29, 24 h, read-out: Survival. For orientation: Sulforhodamine B stains cellular protein and so reports cell mass.
The test system of series [4] is MCF7. Put plainly: Cytotoxicity against human MCF7 cells assessed as cell survival at 100 uM after 24 hrs by SRB assay relative to control. The class given is functional. Particulars: for viability at 100 µM: MCF7, 24 h, read-out: Survival.
Series [5] addresses T1, Nuclear factor erythroid 2-related factor 2 (Mus musculus). Put plainly: Activation of Nrf2 in wild type mouse Hepa1c1c7 cells cytosolic fraction assessed as induction of quinone reductase activity at 10 uM using 2,6-DCIP as substrate in presence of NADH incubated for 48 hrs measured for 1 min relative to control.
For the next series, the system named is Salmonella typhimurium. As to the kind of experiment: Mutagenicity in Salmonella typhimurium TA98 in presence of mouse liver S9 fraction by Ames test. Conditions: salmonella enterica subsp. enterica serovar typhimurium. It is filed as toxicity, organism-based. A general note: The Ames test uses bacterial strains that need an amino acid and regain growth without it when mutated back.

For series [6], the target named is T1, Nuclear factor erythroid 2-related factor 2 (Mus musculus). Put plainly: Activation of Nrf2 in mutant mouse BpRc1 cells cytosolic fraction assessed as induction of quinone reductase activity at 10 uM using 2,6-DCIP as substrate in presence of NADH incubated for 48 hrs measured for 1 min relative to control. It is filed as cell-based.
A further series deals with HK-2. As to the kind of experiment: Genotoxicity in human HK2 cells assessed as induction of DNA strand breakage at 20 uM after 6 hrs by DAPI staining based alkaline comet assay. The class given is toxicity, cell-based. Particulars: hk-2, 6 h.
The subject of series [7] is MCF7. Put plainly: Cytotoxicity against human MCF7 cells assessed as cell survival after 24 hrs by SRB assay. It is filed as functional, cell-based. Particulars: MCF7, 24 h.
Series [8] concerns Rattus norvegicus. As to the kind of experiment: In vivo induction of quinone reductase activity in Wistar rat mammary gland cytosolic fraction at 15 mg/kg, po qd administered over 2 weeks using 2,6-DCIP as substrate relative to control. It is filed as functional.
The target of series [9] is T1, Nuclear factor erythroid 2-related factor 2 (Mus musculus). As to the kind of experiment: Activation of Nrf2 in wild type mouse Hepa1c1c7 cells cytosolic fraction assessed as induction of quinone reductase activity using 2,6-DCIP as substrate in presence of NADH incubated for 48 hrs measured for 1 min.
Series [10] relates to Rattus norvegicus. As to the kind of experiment: In vivo induction of GST activity in Wistar rat colon cytosolic fraction at 15 mg/kg, po qd administered over 2 weeks by measuring GS-CDNB adduct formation using CDNB/GSH as substrate measured for 1 min relative to control. It is filed as functional.
In series [11] the target is T1, Nuclear factor erythroid 2-related factor 2 (Mus musculus). As to the kind of experiment: Ratio of CD for activation of Nrf2 in mutant mouse BpRc1 cells cytosolic fraction to CD for activation of Nrf2 in wild type mouse Hepa1c1c7 cells cytosolic fraction. The class given is cell-based.
Series [12] is described as follows: Cytotoxicity against mutant mouse BpRc1 cells after 48 hrs by SRB assay. It is filed as functional, cell-based. Conditions: BPrc1, 48 h.
Series [13] concerns Rattus norvegicus. Put plainly: In vivo induction of quinone reductase activity in Wistar rat colon cytosolic fraction at 15 mg/kg, po qd administered over 2 weeks using 2,6-DCIP as substrate relative to control. It is filed as functional.
In series [14] the test system is Rattus norvegicus. As to the kind of experiment: Toxicity in Wistar rat assessed as effect on body weight at 15 mg/kg, po qd administered over 2 weeks. The class given is organism-based. Particulars: in vivo, 336 h.
Series [15] concerns the target T1, Nuclear factor erythroid 2-related factor 2 (Mus musculus). As to the kind of experiment: Activation of Nrf2 in mutant mouse BpRc1 cells cytosolic fraction assessed as induction of quinone reductase activity using 2,6-DCIP as substrate in presence of NADH incubated for 48 hrs measured for 1 min. The class given is cell-based.
Series [16] concerns Rattus norvegicus. As to the kind of experiment: In vivo induction of quinone reductase activity in Wistar rat liver cytosolic fraction at 15 mg/kg, po qd administered over 2 weeks using 2,6-DCIP as substrate relative to control. It is filed as functional.
In series [17] the test system is Rattus norvegicus. As to the kind of experiment: In vivo induction of GST activity in Wistar rat mammary gland cytosolic fraction at 15 mg/kg, po qd administered over 2 weeks by measuring GS-CDNB adduct formation using CDNB/GSH as substrate measured for 1 min relative to control. The class given is functional.
A short description of series [18]: Cytotoxicity against wild type mouse Hepa1c1c7 cells after 48 hrs by SRB assay. It is filed as functional, cell-based. Particulars: Hepa-1c1c7, 48 h.
For series [19], the system named is Rattus norvegicus. As to the kind of experiment: In vivo induction of CYP450 activity in Wistar rat mammary gland microsomal fraction at 15 mg/kg, po qd administered over 2 weeks by measuring EROD activity using 7-ethoxyresorufine as substrate measured for 5 mins. It is filed as ADME, organism-based. Conditions: microsomes.
The test system of series [20] is Rattus norvegicus. Put plainly: In vivo induction of CYP450 activity in Wistar rat colon microsomal fraction at 15 mg/kg, po qd administered over 2 weeks by measuring EROD activity using 7-ethoxyresorufine as substrate measured for 5 mins. It is filed as ADME, organism-based. Particulars: microsomes.
For series [21], the system named is Rattus norvegicus. As to the kind of experiment: In vivo induction of GST activity in Wistar rat liver cytosolic fraction at 15 mg/kg, po qd administered over 2 weeks by measuring GS-CDNB adduct formation using CDNB/GSH as substrate measured for 1 min relative to control. It is filed as functional.
For series [22], the target named is T1, Nuclear factor erythroid 2-related factor 2 (Mus musculus). As to the kind of experiment: Induction of Nrf2 nuclear translocation in mouse Hepa1c1c7 cells at 20 uM after 6 hrs by DAPI/Hoechst 33258 staining-based immunofluorescence method. The class given is cell-based.
The subject of series [23] is Rattus norvegicus. Put plainly: In vivo induction of CYP450 activity in Wistar rat liver microsomal fraction at 15 mg/kg, po qd administered over 2 weeks by measuring EROD activity using 7-ethoxyresorufine as substrate measured for 5 mins. It is filed as ADME, organism-based. Conditions: microsomes. In general terms: Liver microsomes are a subcellular fraction often used to study metabolism.

Series [24] can be described thus: Ratio of IC50 for cytotoxicity against mutant mouse BpRc1 cells to CD for activation of Nrf2 in mutant mouse BpRc1 cells cytosolic fraction.
The nature of series [25]: Ratio of IC50 for cytotoxicity against wild type mouse Hepa1c1c7 cells to CD for activation of Nrf2 in wild type mouse Hepa1c1c7 cells cytosolic fraction.
The test system of series [26] is Rattus norvegicus. As to the kind of experiment: Toxicity in Wistar rat assessed as effect on behavior at 15 mg/kg, po qd administered over 2 weeks. The class given is organism-based. Conditions: in vivo, 336 h.
The test system of the next series is TK-10. As to the kind of experiment: Cytotoxicity against human TK10 cells assessed as cell survival after 24 hrs by SRB assay. It is filed as functional, cell-based. Conditions: TK-10, 24 h.

Active and inactive are the calls of the source. The calls are words filed in the database; no cut-off is given here.

With `O=C(/C=C/c1ccccc1)c1ccc2ccccc2c1`, the 50% inhibitory concentration (IC50) – broadly, the point on the concentration scale where inhibition reaches its midpoint – with HT-29 [1] was found to be 32 µM; in the series on MCF7 [7], 28 µM. In series [2], the Ratio came out at 0.8. Further, the viability at 100 µM in the series with HT-29 [3] and with MCF7 [4] was less than 50% each time. Further, the values for the fold change (FC) in [5] and in [6] were 0.96 and 1.21, respectively. Besides, the Activity entry in the series with Salmonella typhimurium and with HK-2 was “Non-Toxic” in each case.

Turning to `O=C(/C=C/c1cccnc1Br)c1ccccc1O`, the Activity is recorded as 13% in the series with Rattus norvegicus [8]; 16% in the series with Rattus norvegicus [10]; 11% in the series with Rattus norvegicus [13]; “Non-Toxic” with Rattus norvegicus [14]; 25% in the series with Rattus norvegicus [16]; 10% in the series with Rattus norvegicus [17]. Further, the Activity result is listed as “Non-Toxic” in the series with Rattus norvegicus [19]; “Non-Toxic” with Rattus norvegicus [20]; “Non-Toxic” in the series on Salmonella typhimurium; 29% in the series with Rattus norvegicus [21]; “Non-Toxic” with HK-2; “Non-Toxic” with Rattus norvegicus [23]. Moreover, in the series on Rattus norvegicus [26], the Activity result is “Non-Toxic”. For the same compound, the Ratio was 0.8 in series [2], 0.71 in [11], more than 20 in series [24] and 2.8 in series [25]. For the same compound, the CD in series [9] came to 14 µM; in series [15], 10 µM. Also, the figures for the IC50 (in series [12]; in [18]; in the series on TK-10) were more than 200 µM, 39 µM and 26 µM, respectively. Moreover, the result (with MCF7 [4]; in series [22]) was Active. In addition, the fold change (FC) in series [5] stood at 1.57; in [6], 1.98.

As to `O=C(/C=C/c1cccc2ccccc12)c1ccccc1O`, the Ratio came out at 1.5 in series [2], 0.91 in series [11], 4.5 in series [24] and 3 in [25]. In addition, the results for the CD in [9] and in [15] were 11 µM and 10 µM, respectively. Further, the viability at 100 µM in the series on HT-29 [3] and with MCF7 [4] was less than 50% in each case. Also, the IC50 turned out to be 45 µM in series [12], 33 µM in [18] and 14 µM in the series with TK-10. In addition, the Activity result with Rattus norvegicus [14] is given as “Non-Toxic”; in the series with Rattus norvegicus [19], “Non-Toxic”; with Rattus norvegicus [20], “Non-Toxic”; in the series with Salmonella typhimurium, “Non-Toxic”; with HK-2, “Non-Toxic”; in the series with Rattus norvegicus [23], “Toxic”. Further, the Activity entry in the series on Rattus norvegicus [26] is recorded as “Non-Toxic”. The fold change (FC) in [5] amounted to 3.21; in series [6], 2.21. Moreover, the result in series [22] was Active.

The record behind these values is ChEMBL document CHEMBL4130341 (Medchemcomm, 2016).
